In paper PMC12040169 (PLOS Biology, 2025):

Assay: in vitro
Settings: human, hela cells, % viability

SMILES | viability at 28.5 h, 10 µM [%]
O=C(NC[C@H]1CC[C@H](C(=O)O)CC1)c1cc2ccccc2[nH]1 [CBK287069] | 105
O=C(O)CCc1nc(-c2ccc3[nH]ccc3c2)no1 [CBK287070] | 99.3
CS(=O)(=O)N1CCCc2cc(C(=O)O)ccc21 [CBK287072] | 93
CC(=O)Nc1ccc(NC(=O)[C@H]2CCCC[C@H]2C(=O)O)cc1 [CBK287073] | 99.6
CCOC(=O)N1CCN(C(=O)CCC(=O)O)CC1 [CBK287075] | 97.3
O=C(O)CCSc1nc(-c2ccccc2)cc(=O)[nH]1 [CBK287076] | 102
CC(C)(C)NS(=O)(=O)c1ccc(OCC(=O)O)cc1 [CBK287077] | 100
Cc1c(CC(=O)O)c2c(n1Cc1ccc(F)cc1)CCCC2=O [CBK287078] | 103
O=C(O)c1[nH]n(-c2ccc(Cl)cc2)c(=O)c1CCO [CBK287079] | 101
CC1CCC(C(=O)NC(Cc2ccccc2)C(=O)O)CC1 (stereo not drawn) [CBK287080] | 90.5
COc1ccc(OC)c(NC(=O)c2ccccc2C(=O)O)c1 [CBK287082] | 86.9
O=C(O)CNC(=O)CNC(=O)C12CC3CC(CC(C3)C1)C2 [CBK287083] | 81.4
COc1ccc(S(=O)(=O)N(C)CC(=O)O)cc1 [CBK287086] | 85.9
O=C(O)[C@H](Cc1ccccc1)Nc1ncnc2[nH]cnc12 [CBK287090] | 87
O=C(NCC1CCCO1)[C@H]1CCCC[C@H]1C(=O)O (stereo partly drawn) [CBK287104] | 88.7
CC(C)CNS(=O)(=O)c1ccc(CCC(=O)O)cc1 [CBK287107] | 80.9
COc1ccc(OCC(=O)Nc2ccc(C(=O)O)c(Cl)c2)cc1 [CBK287108] | 104
Cc1nc(-c2ccccc2)nc2c1c(N)nn2CC(=O)O [CBK287109] | 95.1
O=C1CC(c2ccccc2)c2snc(C(=O)O)c2N1 (stereo not drawn) [CBK287111] | 90.5
O=C(O)c1ccccc1C(=O)NCCC1=CCCCC1 [CBK287113] | 87.8
Cc1ccc(S(=O)(=O)N(CC(=O)O)c2ccc(C(C)C)cc2)cc1 [CBK287116] | 85.3

SMILES | viability at 28.5 h, 10 µM [%]
CN(C(=O)c1ccccc1C(=O)O)C1CC(C)(C)NC(C)(C)C1 [CBK287117] | 98.2
O=C1CC(c2ccc(C(=O)O)cc2)c2sccc2N1 (stereo not drawn) [CBK287119] | 91.9
COc1ccc(-c2cc(C(=O)NCC(=O)O)c(C)o2)cc1OC [CBK287130] | 86.7
COc1ccc(C2NC(C(=O)O)CS2)cc1CN1CCOCC1 (stereo not drawn) [CBK287132] | 87.4
CC(C)(C)c1oc(C(=O)O)cc1CN1CCCC1 [CBK287136] | 84.7
CN1CCN(c2cc3c(cc2F)c(=O)c(C(=O)O)cn3-c2ccc(F)cc2)CC1 [CBK287138] | 78.4
CCCOc1ccc(C(CC(=O)O)NS(=O)(=O)c2ccc(F)cc2)cc1 (stereo not drawn) [CBK287139] | 102
O=C(O)c1ccc(N2CCCCS2(=O)=O)cc1Cl [CBK287142] | 84.5
CC(C)(C)OC(=O)N1CCN(CCC(=O)O)CC1 [CBK287143] | 101
COc1cccc(C(=O)N2Cc3ccccc3CC2C(=O)O)c1 (stereo not drawn) [CBK287150] | 102
CS(=O)(=O)N(CC(=O)O)c1ccc2c(c1)OCCO2 [CBK287151] | 96.6
CCCNS(=O)(=O)c1cc(C(=O)O)ccc1OC [CBK287152] | 98
CCCCC(C(=O)O)N1C(=O)c2ccccc2C1=O (stereo not drawn) [CBK287153] | 101
Cc1ccccc1OCC(=O)NCc1ccc(C(=O)O)cc1 [CBK287155] | 104
O=C(O)CNC(=O)CN1C(=O)c2cc(Cl)c(Cl)cc2C1=O [CBK287156] | 92.3
O=C(O)CC1C(=O)NCCN1Cc1c(F)cccc1Cl (stereo not drawn) [CBK287157] | 88.6
CCC(NC(=O)c1ccc(C#CC2(O)CCCCC2)cc1)C(=O)O (stereo not drawn) [CBK287160] | 96.8
CC(=O)N(C)c1ccc(NC(=O)/C=C/C(=O)O)cc1 [CBK287162] | 87
O=C(O)c1cccc(NCC(=O)c2ccccc2)c1 [CBK287163] | 88.8
O=C1c2ccccc2NC(C(=O)O)(c2ccccc2)N1c1ccccc1Cl (stereo not drawn) [CBK287169] | 81
O=C(O)CCCNS(=O)(=O)/C=C/c1ccccc1 [CBK287170] | 85.1

SMILES | viability at 28.5 h, 10 µM [%]
CCOc1ccc(S(=O)(=O)Nc2ccc(C(=O)O)cc2)cc1 [CBK287171] | 89.9
O=C(O)c1ccc2c(c1)C(=O)N(c1cccnc1)C2=O [CBK287173] | 84.3
O=C(CCCc1c[nH]c2ccccc12)Nc1cccc(C(=O)O)c1 [CBK287175] | 104
O=C(O)c1cccnc1SCc1cc2c(cc1Cl)OCO2 [CBK287178] | 93.9
CCc1ccccc1NC(=O)CN1CCCCC1C(=O)O (stereo not drawn) [CBK287179] | 92.4
O=C(O)c1ccccc1S(=O)(=O)CC(=O)N1CCCCC1 [CBK287180] | 89.1
Cc1ccc(C2CCC(C(=O)O)C(C(=O)O)C2)cc1C (stereo not drawn) [CBK287184] | 98.2
Nc1nc(-c2ccc(Cl)cc2)c(CC(=O)O)s1 [CBK287188] | 80
COc1ccccc1NC(CC(=O)c1ccccc1)C(=O)O (stereo not drawn) [CBK287190] | 83.8
O=C(O)CCC(=O)CCC(=O)c1ccc(F)cc1 [CBK287191] | 87.3
O=C(O)CCN1C(=O)COc2ccc(Cl)cc21 [CBK287192] | 107
Cc1ccc(C(=O)CC(C(=O)O)c2cn(CCC#N)c3ccccc23)cc1 (stereo not drawn) [CBK287194] | 85.8
O=C(O)C1CCN(c2c(-c3ccccc3)c3cc(Cl)ccc3[nH]c2=O)CC1 [CBK287198] | 87.3
CCCn1cnc2sc(C(=O)O)c(C)c2c1=O [CBK287199] | 96
CCCNC(=O)CSc1ncccc1C(=O)O [CBK287202] | 78.6
Cc1ccc(CN(c2ccc(C(=O)O)cc2)S(C)(=O)=O)cc1 [CBK287203] | 85
CC(C)(C)NC(=O)COc1ccc(CNCc2ccc(C(=O)O)cc2)cc1 [CBK287204] | 78.1
CCCCNCC(=O)Nc1sc2c(c1C(=O)O)CCCC2 [CBK287207] | 83.7
O=C(O)CCC1C(=O)CCC1(C(=O)O)c1ccccc1 (stereo not drawn) [CBK287208] | 108
O=C(O)C1CCN(C2C(=O)Nc3ccc(Cl)cc3C2c2ccccc2)CC1 (stereo not drawn) [CBK287210] | 94.4
O=C(O)C1CC(=O)N(CCc2c[nH]c3ccc(Cl)cc23)C1 (stereo not drawn) [CBK287211] | 91

SMILES | viability at 28.5 h, 10 µM [%]
CC(C)CC(NC(=O)C1CCC(C)CC1)C(=O)O (stereo not drawn) [CBK287212] | 88.2
O=C(O)[C@@H]1CSC(c2ccc3c(c2)OCO3)N1 (stereo partly drawn) [CBK287214] | 89.8
CN(C)S(=O)(=O)c1ccc(CCC(=O)O)cc1 [CBK287216] | 92
O=C(O)CCSc1nnnn1-c1ccccc1 [CBK287217] | 88.4
O=C(O)Cn1c(=O)[nH]c2c(-c3ccccc3)c[nH]c2c1=O [CBK287218] | 87.2
NC(CSC12CC3CC(CC(C3)C1)C2)C(=O)O (stereo not drawn) [CBK287219] | 88.2
O=C(O)CC(CN1C(=O)c2ccccc2C1=O)C(=O)c1ccccc1 (stereo not drawn) [CBK287221] | 92.4
O=C(O)/C=C/C(=O)NCCc1c[nH]c2ccccc12 [CBK287222] | 93
O=C(O)CCc1ccc(S(=O)(=O)N2CCOCC2)cc1 [CBK287224] | 90.1
CCC(CC)NS(=O)(=O)c1cccc(C(=O)O)c1 [CBK287225] | 88.3
CC12CC(NC(=O)N1c1ccc(C(=O)O)cc1)c1ccccc1O2 (stereo not drawn) [CBK287226] | 82.2
O=C(O)c1ccc(N2C(=O)CC(N3CCN(c4cccc(C(F)(F)F)c4)CC3)C2=O)cc1 (stereo not drawn) [CBK287228] | 93.3
CC(C)(C)NC(=O)COc1ccc(CNc2ccc(C(=O)O)c(Cl)c2)cc1 [CBK287230] | 111
COc1ccc(-c2nnc(SCC(=O)O)n2C)cc1 [CBK287232] | 93
COc1ccc(C2NC(C(=O)O)C3C(=O)N(c4ccc(C)cc4)C(=O)C23)c(OC)c1 (stereo not drawn) [CBK287233] | 90.2
CC1CCC(C(=O)Nc2ccc(C(=O)O)cc2)CC1 (stereo not drawn) [CBK287234] | 94.8
CCCOc1ccc(N2C(=O)CC(N3CCC(C(=O)O)CC3)C2=O)cc1 (stereo not drawn) [CBK287235] | 102
O=C(O)C(Cc1c[nH]c2ccccc12)NCC1CCCCC1 (stereo not drawn) [CBK287238] | 110
CS(=O)(=O)N(Cc1ccccc1F)c1ccccc1C(=O)O [CBK287239] | 104
COc1ccc(NC(=O)c2cnn3c2NC(C(=O)O)=CC3c2ccccc2)cc1 (stereo not drawn) [CBK287240] | 101

Same assay, conditions: human, hela cells, % viability, bulk resorufin, single well

SMILES | viability at 28.5 h, 10 µM [%]
O=C(O)Cn1cc(C(=O)c2ccccc2F)c2ccccc21 [CBK287100] | 92.7
